{"source": "paper PMC9959726", "about": "(Molecules, 2023)", "origin": "cited, not measured here", "key": {"[1]": {"tested_on": "BEAS-2B and HepG2 cells", "settings": "PM2.5-induced BEAS-2B and HepG2 cells"}, "[2]": {"tested_on": "CYP-1A2", "design": "method as in PMID 34377680", "settings": "for Effect on CYP 1A2: from P. anisum root"}, "[3]": {"tested_on": "MCF-7 cells", "design": "method as in PMID 29959054", "settings": "from P. haussknechtii fruit; read-out: Cytotoxicity against MCF-7 cell, IC50"}, "[4]": {"settings": "from P. thellungiana"}, "[5]": {"tested_on": "DNA", "settings": "compounds obtained from P. saxifraga"}, "[6]": {"settings": "for antioxidant activity: compounds obtained from P. saxifraga; for antioxidant property: from P. brachycarpa"}, "[7]": {"tested_on": "α-glycosidase", "settings": "for α-glucosidase inhibitory: from P. candolleana; for α-glucosidase inhibition: from P. anthriscoides"}, "[8]": {"tested_on": "BChE", "settings": "from P. anthriscoides"}, "[9]": {"tested_on": "α-amylase", "settings": "from P. anthriscoides"}, "[10]": {"tested_on": "AChE", "settings": "from P. anthriscoides"}, "[11]": {"tested_on": "pestiferous pests", "design": "method as in PMID 29029251, PMID 29029346"}, "[12]": {"design": "method as in PMID 30704124"}}, "note": "Read-outs that look alike come from different tables or passages of the source."}
{"molecule": "CC=Cc1ccc(OC)cc1", "note": "(stereo in doubt) [compound 40, cis-anethole]", "values": [{"measurement": "reduction of IL-8 level", "setting": "[1]", "result": 87, "unit": "%"}]}
{"molecule": "COc1c2ccoc2cc2oc(=O)ccc12", "note": "[Bergapten (256)]", "values": [{"measurement": "Effect on CYP 1A2", "setting": "[2]", "result": "Inhibitory effects on CYP 1A2"}]}
{"molecule": "CC(C)=CC(C)(O)C1OC(=O)Cc2oc(C)cc(=O)c21", "note": "(stereo not drawn) [Pimpinelol (205)]", "values": [{"measurement": "IC50", "setting": "[3]", "result": 1060, "unit": "nM"}]}
{"molecule": "CCOC(c1cc(OC)ccc1O)C(C)O", "note": "(stereo not drawn) [compound 1, 2-(1′-ethoxy-2′-hydroxy)propyl-4-methoxyphenol]", "values": [{"measurement": "antihypertensive activity", "setting": "[4]", "result": "significant antihypertensive activity"}]}
{"molecule": "CCOC(c1cc(OC)ccc1OC(=O)C(C)CC)C(C)O", "note": "(stereo not drawn) [compound 2, 2-(1′-ethoxy-2′-hydroxy)propyl-4-methoxyphenyl-2-methyl-butyrate]", "values": [{"measurement": "antihypertensive activity", "setting": "[4]", "result": "significant antihypertensive activity"}]}
{"molecule": "COC(=O)/C=C/c1ccccc1O", "note": "[compound 48, methyl-O-coumarate]", "values": [{"measurement": "DNA protection potential", "setting": "[5]", "result": "DNA protection potential"}, {"measurement": "antioxidant activity", "setting": "[6]", "result": "antioxidant activity"}]}
{"molecule": "CCC(=O)c1ccc(OC)cc1O", "note": "[compound 49, 1-(2-hydroxy-4-methoxyphenyl)propan1-one]", "values": [{"measurement": "DNA protection potential", "setting": "[5]", "result": "DNA protection potential"}, {"measurement": "antioxidant activity", "setting": "[6]", "result": "antioxidant activity"}]}
{"molecule": "COc1ccc(C=CC=O)cc1", "note": "[compound 50, 4-methoxycinnamaldehyde]", "values": [{"measurement": "DNA protection potential", "setting": "[5]", "result": "DNA protection potential"}, {"measurement": "antioxidant activity", "setting": "[6]", "result": "antioxidant activity"}]}
{"molecule": "C=CCc1cc2c(c(OC)c1OC)OCO2", "note": "[compound 51, dillapiole]", "values": [{"measurement": "DNA protection potential", "setting": "[5]", "result": "DNA protection potential"}, {"measurement": "antioxidant activity", "setting": "[6]", "result": "antioxidant activity"}]}
{"molecule": "COc1c2ccoc2cc2oc(=O)ccc12", "note": "[compound 256, bergapten]", "values": [{"measurement": "CYP-1A2 inhibition", "setting": "[2]", "result": "inhibitors"}]}
{"molecule": "COc1c2ccoc2c(OC)c2oc(=O)ccc12", "note": "[compound 274, isopimpinellin]", "values": [{"measurement": "CYP-1A2 inhibition", "setting": "[2]", "result": "inhibitors"}]}
{"molecule": "CCC(C=CC(C)C1CCC2C3CC=C4CC(OC(C)=O)CCC4(C)C3CCC12C)C(C)C", "note": "(stereo not drawn) [compound 294, Stigmasta-5, 22-dien-3-olacetate]", "values": [{"measurement": "α-glucosidase inhibitory", "setting": "[7]", "result": "α-glucosidase inhibitory"}, {"measurement": "antioxidant", "setting": "[6]; from P. candolleana", "result": "effective antioxidant"}]}
{"molecule": "CC[C@H](CC[C@@H](C)[C@H]1CC[C@H]2[C@@H]3CC=C4C[C@@H](O[C@@H]5O[C@H](CO)[C@@H](O)[C@H](O)[C@H]5O)CC[C@]4(C)[C@H]3CC[C@]12C)C(C)C", "note": "[compound 295, daucosterol]", "values": [{"measurement": "α-glucosidase inhibitory", "setting": "[7]", "result": "α-glucosidase inhibitory"}, {"measurement": "antioxidant", "setting": "[6]; from P. candolleana", "result": "effective antioxidant"}]}
{"molecule": "CC[C@H](/C=C/[C@@H](C)[C@H]1CC[C@H]2[C@@H]3CC=C4C[C@@H](O)CC[C@]4(C)[C@H]3CC[C@]12C)C(C)C", "note": "[compound 296, stigmasterol]", "values": [{"measurement": "α-glucosidase inhibitory", "setting": "[7]", "result": "α-glucosidase inhibitory"}, {"measurement": "antioxidant", "setting": "[6]; from P. candolleana", "result": "effective antioxidant"}]}
{"molecule": "CC(=O)C(C)CCC(C)C1CCC2(C)C3CCC4C(C)(C)CCCC4(C)C3CCC12C", "note": "(stereo not drawn) [compound 297, 24ζ-Methyl-5R-lanosta-25-one]", "values": [{"measurement": "antioxidant property", "setting": "[6]", "result": "antioxidant property"}]}
{"molecule": "CC(=O)[C@H]1CC[C@H]2[C@@H]3CC=C4C[C@@H](O)CC[C@]4(C)[C@H]3CC[C@]12C", "note": "[compound 298, pregnenolone]", "values": [{"measurement": "antioxidant property", "setting": "[6]", "result": "antioxidant property"}]}
{"molecule": "O=C(O)C(O)Cc1ccccc1", "note": "(stereo not drawn) [compound 337, 3-phenyllactic acid]", "values": [{"measurement": "α-glucosidase inhibition", "setting": "[7]", "result": "inhibiting"}, {"measurement": "BChE inhibition", "setting": "[8]", "result": "inhibiting"}, {"measurement": "α-amylase inhibition", "setting": "[9]", "result": "inhibiting"}, {"measurement": "AChE inhibition", "setting": "[10]", "result": "inhibiting"}, {"measurement": "antioxidant", "setting": "[6]; from P. anthriscoides", "result": "proven antioxidant"}]}
{"molecule": "O=C(O)CC(O)(CC(=O)O)C(=O)O", "note": "[compound 338, citric acid]", "values": [{"measurement": "α-glucosidase inhibition", "setting": "[7]", "result": "inhibiting"}, {"measurement": "BChE inhibition", "setting": "[8]", "result": "inhibiting"}, {"measurement": "α-amylase inhibition", "setting": "[9]", "result": "inhibiting"}, {"measurement": "AChE inhibition", "setting": "[10]", "result": "inhibiting"}, {"measurement": "antioxidant", "setting": "[6]; from P. anthriscoides", "result": "proven antioxidant"}]}
{"molecule": "COc1c2ccoc2c(OC)c2oc(=O)ccc12", "note": "[isopimpinellin (274)]", "values": [{"measurement": "Effect on CYP 1A2", "setting": "[2]", "result": "Inhibitory effects on CYP 1A2"}]}
{"molecule": "COc1c2occc2cc2ccc(=O)oc12", "note": "[methoxsalen (275)]", "values": [{"measurement": "Effect on CYP 1A2", "setting": "[2]", "result": "Inhibitory effects on CYP 1A2"}]}
{"molecule": "p-anisaldehyde [compound 47]", "values": [{"measurement": "DNA protection potential", "setting": "[5]", "result": "DNA protection potential"}, {"measurement": "reproduction of pests", "setting": "[11]", "result": "inhibiting the reproduction of pests"}, {"measurement": "antioxidant activity", "setting": "[6]", "result": "antioxidant activity"}]}
{"molecule": "umbelliprenin [compound 276]", "values": [{"measurement": "skin whitening", "setting": "[12]", "result": "potential skin-whitening agent"}]}
